Assay results published in paper PMC9861803, “A New ABCB1 Inhibitor Enhances the Anticancer Effect of Doxorubicin in Both In Vitro and In Vivo Models of NSCLC” (International Journal of Molecular Sciences, 2023).

Columns and labels:
[1] = target: T1, breast cancer resistant protein (BCRP, ABCG2) (Homo sapiens, UniProt Q9UNQ0); test: Hoechst […] accumulation assay in H460 cells; format: cell-based
T1 sequence (Q9UNQ0 1-655): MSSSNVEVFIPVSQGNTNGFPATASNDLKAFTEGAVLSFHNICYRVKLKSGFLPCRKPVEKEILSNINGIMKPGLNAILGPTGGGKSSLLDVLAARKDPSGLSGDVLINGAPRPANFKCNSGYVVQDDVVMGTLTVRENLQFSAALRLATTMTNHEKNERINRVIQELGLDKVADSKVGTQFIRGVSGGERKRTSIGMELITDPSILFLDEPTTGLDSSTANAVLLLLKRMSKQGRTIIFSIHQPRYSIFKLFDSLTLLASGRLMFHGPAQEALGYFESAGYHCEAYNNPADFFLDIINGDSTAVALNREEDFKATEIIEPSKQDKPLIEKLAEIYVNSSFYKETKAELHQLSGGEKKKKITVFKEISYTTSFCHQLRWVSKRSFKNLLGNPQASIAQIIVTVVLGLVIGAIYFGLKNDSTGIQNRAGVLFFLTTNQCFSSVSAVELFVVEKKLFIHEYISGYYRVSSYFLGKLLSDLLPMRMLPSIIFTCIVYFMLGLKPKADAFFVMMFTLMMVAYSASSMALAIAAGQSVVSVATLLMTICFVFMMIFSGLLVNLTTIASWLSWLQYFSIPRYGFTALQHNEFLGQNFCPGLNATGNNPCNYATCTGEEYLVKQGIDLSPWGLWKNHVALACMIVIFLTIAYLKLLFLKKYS

ABCA1 = ABCA1 (Mus musculus, UniProt P41233); test: radiolabelled cholesterol efflux to apoA-I from murine peritoneal macrophages; format: cell-based
ABCA1, sequence (P41233 whole entry): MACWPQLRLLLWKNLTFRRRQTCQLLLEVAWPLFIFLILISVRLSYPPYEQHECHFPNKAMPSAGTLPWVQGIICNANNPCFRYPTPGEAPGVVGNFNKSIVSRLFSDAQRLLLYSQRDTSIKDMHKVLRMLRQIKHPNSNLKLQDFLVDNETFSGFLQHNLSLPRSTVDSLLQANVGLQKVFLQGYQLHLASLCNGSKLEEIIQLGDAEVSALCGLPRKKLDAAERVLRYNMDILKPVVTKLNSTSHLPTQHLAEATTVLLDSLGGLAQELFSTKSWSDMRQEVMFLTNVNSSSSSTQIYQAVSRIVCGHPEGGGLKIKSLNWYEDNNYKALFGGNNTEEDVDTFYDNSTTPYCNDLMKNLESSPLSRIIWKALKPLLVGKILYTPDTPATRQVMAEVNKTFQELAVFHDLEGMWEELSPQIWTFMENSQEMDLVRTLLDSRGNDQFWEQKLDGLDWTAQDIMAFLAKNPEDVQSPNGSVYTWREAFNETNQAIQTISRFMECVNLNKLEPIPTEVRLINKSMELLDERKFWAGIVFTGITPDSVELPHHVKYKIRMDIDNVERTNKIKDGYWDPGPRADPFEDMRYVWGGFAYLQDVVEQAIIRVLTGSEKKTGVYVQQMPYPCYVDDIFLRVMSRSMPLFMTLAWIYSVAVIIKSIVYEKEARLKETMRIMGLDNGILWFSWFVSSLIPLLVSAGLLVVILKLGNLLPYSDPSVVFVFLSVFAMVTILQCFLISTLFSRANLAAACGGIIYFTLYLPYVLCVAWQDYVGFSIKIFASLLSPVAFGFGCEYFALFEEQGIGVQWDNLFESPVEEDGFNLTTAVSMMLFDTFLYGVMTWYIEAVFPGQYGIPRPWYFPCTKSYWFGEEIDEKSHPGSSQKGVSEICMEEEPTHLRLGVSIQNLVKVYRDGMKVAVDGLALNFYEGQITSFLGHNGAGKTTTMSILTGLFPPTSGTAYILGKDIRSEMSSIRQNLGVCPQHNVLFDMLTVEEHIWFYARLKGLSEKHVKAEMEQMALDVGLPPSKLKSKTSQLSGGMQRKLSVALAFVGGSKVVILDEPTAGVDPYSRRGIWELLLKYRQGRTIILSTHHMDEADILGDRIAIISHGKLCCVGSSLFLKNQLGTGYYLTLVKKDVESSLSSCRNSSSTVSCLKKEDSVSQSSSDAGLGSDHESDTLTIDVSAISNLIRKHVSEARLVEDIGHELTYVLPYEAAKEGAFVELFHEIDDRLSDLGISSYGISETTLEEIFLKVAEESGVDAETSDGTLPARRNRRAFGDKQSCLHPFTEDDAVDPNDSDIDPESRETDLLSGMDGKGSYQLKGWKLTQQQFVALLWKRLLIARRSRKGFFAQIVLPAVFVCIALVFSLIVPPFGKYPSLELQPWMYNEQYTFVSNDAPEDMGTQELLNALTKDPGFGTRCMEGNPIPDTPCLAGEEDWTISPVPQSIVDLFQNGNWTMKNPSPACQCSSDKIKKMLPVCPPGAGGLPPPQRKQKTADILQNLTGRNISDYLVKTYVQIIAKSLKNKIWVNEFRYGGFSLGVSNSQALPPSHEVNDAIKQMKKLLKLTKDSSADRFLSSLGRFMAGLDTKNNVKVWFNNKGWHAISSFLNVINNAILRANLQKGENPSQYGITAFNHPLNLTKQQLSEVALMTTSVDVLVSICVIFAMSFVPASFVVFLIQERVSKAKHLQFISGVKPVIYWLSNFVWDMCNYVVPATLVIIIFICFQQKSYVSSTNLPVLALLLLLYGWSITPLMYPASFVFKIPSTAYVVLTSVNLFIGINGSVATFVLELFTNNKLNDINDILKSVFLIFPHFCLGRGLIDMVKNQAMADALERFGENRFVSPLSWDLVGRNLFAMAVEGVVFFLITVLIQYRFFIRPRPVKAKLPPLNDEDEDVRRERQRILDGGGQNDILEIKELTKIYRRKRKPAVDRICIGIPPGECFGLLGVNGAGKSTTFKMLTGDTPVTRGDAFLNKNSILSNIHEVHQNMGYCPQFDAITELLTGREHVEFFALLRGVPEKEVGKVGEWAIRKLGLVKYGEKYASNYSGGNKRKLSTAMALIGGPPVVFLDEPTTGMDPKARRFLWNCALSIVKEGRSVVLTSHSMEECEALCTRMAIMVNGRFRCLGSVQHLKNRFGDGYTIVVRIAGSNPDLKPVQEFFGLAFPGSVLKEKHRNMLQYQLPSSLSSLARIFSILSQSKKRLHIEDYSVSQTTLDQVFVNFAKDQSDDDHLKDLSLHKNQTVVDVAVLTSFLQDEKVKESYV

SMILES	Hoechst 33342 accumulation assay in H460 cells [1]	radiolabelled cholesterol efflux to apoA-I from murine peritoneal macrophages (ABCA1)
COc1ccc2c3c([nH]c2c1)[C@H](C=C(C)C)N1C(=O)[C@@H]2CCCN2C(=O)[C@@H]1C3 [fumetrimorgin C]	the reference compound fumetrimorgin C, as expected, significantly inhibited the amount of Hoechst 33342-caused intracellular fluorescence	
CC(C)(Sc1cc(C(C)(C)C)c(O)c(C(C)(C)C)c1)Sc1cc(C(C)(C)C)c(O)c(C(C)(C)C)c1 [probucol]		probucol, the lead compound, significantly inhibited in a dose-dependent manner the ABCA1 activity
